In US8580809B2, “Filamin A-binding anti-inflammatory analgesic” (Pain Therapeutics, Inc., priority 2009, dated 2013):

Biological target: T1, mu opiate receptor (MOR) (Rattus norvegicus, UniProt P33535)
T1 construct: from tissue; host or cells: rat striatal membrane preparation
Assay: MOR agonist activity using [35S]GTPγS binding assay in striatal membranes
Assay type: biochemical
Conditions: for MOR agonist activity, [35S]GTPγS binding to Gαo, FLNA-binding compound as agonist 0.1 μM: 0.1 μM compound; for MOR agonist activity, [35S]GTPγS binding to Gαo, FLNA-binding compound as agonist 0.1 μM / MOR agonist activity, [35S]GTPγS binding to Gαo, FLNA-binding compound as agonist 1 μM: striatal membranes; for MOR agonist activity, [35S]GTPγS binding to Gαo, 1 μM + BFNA: 1 μM compound + 1 μM β-funaltrexamine; for MOR agonist activity, [35S]GTPγS binding to Gαo, FLNA-binding compound as agonist 1 μM: 1 μM compound
Procedure: To assess the mu opiate receptor (MOR) agonist activity of positive compounds from the FLNA screening, compounds were tested in a [^35S]GTPγS binding assay using striatal membranes.
Striatal tissue was homogenized in 10 volumes of ice cold 25 mM HEPES buffer, pH 7.4, which contained 1 mM EGTA, 100 mM sucrose, 50 μg/ml leupeptin, 0.04 mM PMSF, 2 μg/ml soybean trypsin inhibitor and 0.2% 2-mercaptoethanol. The homogenates were centrifuged at 800×g for 5 minutes and the supernatants were centrifuged at 49,000×g for 20 minutes.
The resultant striatal membrane preparation (200 μg) was admixed and maintained (incubated) at 30° C. for 5 minutes in reaction buffer as above that additionally contained 1 mM MgCl2 and 0.5 nM [^35S]GTPγS (0.1 μCi/assay, PerkinElmer Life and Analytical Sciences) in a total volume of 250 μl and continued for 5 minutes in the absence or presence of 0.1-10 μM of an assayed compound of interest. The reaction was terminated by dilution with 750 μl of ice-cold reaction buffer that contained 20 mM MgCl2 and 1 mM EGTA and immediate centrifugation at 16,000×g for 5 minutes.
The resulting pellet was solubilized by sonicating for 10 seconds in 0.5 ml of immunoprecipitation buffer containing 0.5% digitonin, 0.2% sodium cholate and 0.5% NP-40. Normal rabbit serum (1 μl) was added to 1 ml of lysate and incubated at 25° C. for 30 minutes. Nonspecific immune complexes were removed by incubation with 25 μl of protein A/G-conjugated agarose beads at 25° C. for 30 minutes followed by centrifugation at 5,000×g at 4° C. for 5 minutes. The supernatant was divided and separately incubated at 25° C. for 30 minutes with antibodies raised against Gαo proteins (1:1,000 dilutions).
The immunocomplexes so formed were collected by incubation at 25° C. for 30 minutes with 40 μl of agarose-conjugated protein A/G beads and centrifugation at 5,000×g at 4° C. for 5 minutes. The pellet was washed and suspended in buffer containing 50 mM Tris-HCl, pH 8.0, and 1% NP-40. The radioactivity in the suspension was determined by liquid scintillation spectrometry. […] DAMGO (H-Tyr-D-Ala-Gly-N-MePhe-Gly-OH; 1 or 10 μM) was used as a positive control.

T1 sequence (P33535 whole entry): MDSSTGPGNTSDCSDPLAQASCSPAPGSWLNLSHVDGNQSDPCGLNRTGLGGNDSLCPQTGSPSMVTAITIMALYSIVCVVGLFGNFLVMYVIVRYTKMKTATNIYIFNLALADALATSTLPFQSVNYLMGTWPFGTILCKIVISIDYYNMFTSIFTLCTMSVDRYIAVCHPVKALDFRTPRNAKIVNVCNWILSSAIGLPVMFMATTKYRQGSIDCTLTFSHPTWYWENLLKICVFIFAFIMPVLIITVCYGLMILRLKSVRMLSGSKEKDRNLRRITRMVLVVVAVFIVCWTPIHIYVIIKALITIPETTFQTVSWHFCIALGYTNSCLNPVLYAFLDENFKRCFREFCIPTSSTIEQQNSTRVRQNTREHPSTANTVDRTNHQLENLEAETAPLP

| SMILES | MOR agonist activity, [35S]GTPγS binding to Gαo, FLNA-binding compound as agonist 0.1 μM [%] | MOR agonist activity, [35S]GTPγS binding to Gαo, 1 μM + BFNA [%] | MOR agonist activity, [35S]GTPγS binding to Gαo, FLNA-binding compound as agonist 1 μM [%] |
| --- | --- | --- | --- |
| O=S(=O)(c1ccccc1)N1CCC2(CC1)OCCN2S(=O)(=O)c1ccccc1 [Compound C0016] | 172.7 | 96.7 | 230.5 |
| COc1ccc(C(=O)N2CCC3(CC2)OCCN3C(=O)c2ccc(OC)cc2)cc1 [Compound C0017] | 153.8 | 94.1 | 284.5 |
| COc1ccc(C(=O)N2CCC3(CC2)OCCN3S(=O)(=O)c2ccc(OC)cc2)cc1 [Compound C0018] | 195.5 | 106.5 | 247.7 |
| COc1ccc(C(=O)N2CCOC23CCN(S(=O)(=O)c2ccc(OC)cc2)CC3)cc1 [Compound C0019] | 104.4 | 52.8 | 176.6 |
| CNc1ccc(S(=O)(=O)N2CCC3(CC2)OCCN3S(=O)(=O)c2ccc(NC)cc2)cc1 [Compound C0024] | 178.4 | 59.3 | 229.6 |
| O=S(=O)(c1ccc(Br)cc1)N1CCC2(CC1)OCCN2S(=O)(=O)c1ccc(Br)cc1 [Compound C0025] | 235.7 | 80.2 | 320.7 |
| COC(=O)c1ccc(S(=O)(=O)N2CCC3(CC2)OCCN3S(=O)(=O)c2ccc(C(=O)OC)cc2)cc1 [Compound C0028] | 93.9 | 78.4 | 132.4 |
| O=S(=O)(c1ccc(F)cc1)N1CCC2(CC1)OCCN2S(=O)(=O)c1ccc(F)cc1 [Compound C0029] | 175.4 | 16.6 | 308.8 |
| CCCCc1ccc(S(=O)(=O)N2CCC3(CC2)OCCN3S(=O)(=O)c2ccc(CCCC)cc2)cc1 [Compound C0030] | 150.3 | 95.0 | 226.8 |
| O=C(c1ccc([N+](=O)[O-])cc1)N1CCC2(CC1)OCCN2C(=O)c1ccc([N+](=O)[O-])cc1 [Compound C0032] | 145.4 | 80.9 | 202.0 |
| NS(=O)(=O)c1ccc(S(=O)(=O)N2CCC3(CC2)OCCN3S(=O)(=O)c2ccc(S(N)(=O)=O)cc2)cc1 [Compound C0034] | 103.6 | 80.1 | 167.9 |
| COc1ccc(NC(=O)N2CCC3(CC2)OCCN3S(=O)(=O)c2ccc(OC)cc2)cc1 [Compound C0041] | 186.1 | 95.5 | 244.4 |
| O=C(OCc1ccccc1)c1ccc(S(=O)(=O)N2CCC3(CC2)OCCN3S(=O)(=O)c2ccc(C(=O)OCc3ccccc3)cc2)cc1 [Compound C0042] | 167.1 | 110.6 | 260.9 |
| COc1ccc(S(=O)(=O)N2CCC3(CC2)OCCN3S(=O)(=O)c2ccc(C(C)=O)cc2)cc1 [Compound C0048] | 209.1 | 89.9 | 245.3 |
